Entries after “also recorded” stand apart in the source; their conditions may differ.
Legend:
[1] = tested on: NO generation; assay: Blockade of NO generation with L-NAME in Ang II-infused WT and IL-1R KO mice, blood pressure; type: in vivo; conditions: L-NAME in drinking water from day 7 of Ang II, by day 14
From the text: Because IL-1 is secreted by macrophages, macrophage infiltration into the kidneys of the experimental animals was examined. After 4 weeks of hypertension, IL-1R KO kidneys contained more F4/80+ macrophages than WTs (18±1 vs. 14±2 per HPF; p=0.03). […] In turn, the KO group had enhanced renal mRNA expression of the NO-generating enzyme iNOS (1.7±0.3 vs. 1.0±0.2 au; p<0.05) and higher excretion of NO metabolites vs. WTs (152±46 vs. 60±15 nmol/mg Cr; p=0.05). NO inhibits renal sodium (Na) reabsorption, and during the 2″d wk of Ang II infusion when WT and KO BPs separated, only the KOs entered negative Na balance (−16.8±16.8 vs. WT 34.8±7.5 1-Jmol/day, p=0.01). To confirm that preserved NO bioavailability in the Ang 11-infused KOs led to their lower BP vs. WTs, we blocked NO generation in the groups with L-NAME starting on day 7 of Ang II when the WT and KO BPs were 179±3 vs. 165±6 mm Hg (p<0.01). By day 14, BPs converged (186±5 vs. 185±8; p=NS), (FIG. 2.) As NO is known to inhibit the NKCC2 sodium transporter in the kidney, NKCC2 activity at day 10 of Ang II was measured by quantitating urine sodium to creatinine ratios (UNa/UCr) 3 hours after an IP injection of saline with or without furosemide. […] Thus, reduced NKCC2 activity in the IL-1 R KOs protects them from Ang 11-induced sodium retention. […]

[2] = tested on: NKCC2; assay: NKCC2 activity: 3-hour urine sodium to creatinine ratio after acute IP furosemide challenge at day 10 of Ang II; type: in vivo, mice; conditions: for urine sodium to creatinine ratio: 3-hour sodium excretion after IP furosemide
From the text: Because IL-1 is secreted by macrophages, macrophage infiltration into the kidneys of the experimental animals was examined. After 4 weeks of hypertension, IL-1R KO kidneys contained more F4/80+ macrophages than WTs (18±1 vs. 14±2 per HPF; p=0.03). […] In turn, the KO group had enhanced renal mRNA expression of the NO-generating enzyme iNOS (1.7±0.3 vs. 1.0±0.2 au; p<0.05) and higher excretion of NO metabolites vs. WTs (152±46 vs. 60±15 nmol/mg Cr; p=0.05). NO inhibits renal sodium (Na) reabsorption, and during the 2″d wk of Ang II infusion when WT and KO BPs separated, only the KOs entered negative Na balance (−16.8±16.8 vs. WT 34.8±7.5 1-Jmol/day, p=0.01). To confirm that preserved NO bioavailability in the Ang 11-infused KOs led to their lower BP vs. WTs, we blocked NO generation in the groups with L-NAME starting on day 7 of Ang II when the WT and KO BPs were 179±3 vs. 165±6 mm Hg (p<0.01). By day 14, BPs converged (186±5 vs. 185±8; p=NS), (FIG. 2.) As NO is known to inhibit the NKCC2 sodium transporter in the kidney, NKCC2 activity at day 10 of Ang II was measured by quantitating urine sodium to creatinine ratios (UNa/UCr) 3 hours after an IP injection of saline with or without furosemide. […] Thus, reduced NKCC2 activity in the IL-1 R KOs protects them from Ang 11-induced sodium retention.
Therefore, to examine NKCC2 activity in the groups at day 10 of Ang II when the differences in sodium excretion was noted, 3-hour sodium excretion was quantitated in response to an acute intraperitoneal (IP) furosemide challenge (FIG. 8). In response to IP saline injection alone, the IL-1RKO mice had exaggerated urine sodium to creatinine ratios, consistent with their enhanced natriuresis in original balance study (237±38 vs. 120±9%; p=0.016). […] Without being bound by a particular theory, it is believed that IL-1 receptor activation stimulates renal sodium reabsorption via NKCC2-mediated sodium transport during Ang II-dependent HTN.

[3] = tested on: Ang II-infused mice; assay: Target organ damage (cardiac hypertrophy, albuminuria) in Ang II-induced hypertension; type: in vivo; conditions: Ang II-infused mice treated with anakinra
Procedure: For example, the Ang 11-infused IL-1 R KO mice had less cardiac hypertrophy than WJ mice as measured by heart weight/body weight ratios (7.5±0.9 vs. 9.3±0.8 mg/g, p<0.001). Loss of albumin in the urine is a marker for kidney glomerular damage in humans, and Ang 11-infused IL-1 R KO mice had nearly 40% less in albuminuria than Ang 11-infused WT animals (5.90±0.93 vs. 9.38±1.43 mg/mg Cr; p=0.05). […] Thus, the lower blood pressures in IL-1 receptor-deficient mice led to reduced hypertensive damage to the heart and kidney.
Uni-nephrectomized IL-1 R-deficient(IL-1R KO) and wild-type (WT) mice was chronically infused with (1000 ng/kg/min) for 4 weeks using an implanted osmotic mini-pump after measurement of baseline blood pressures. The mice were then treated with vehicle or anakinra (50 mg/kg/day IP) once daily beginning 3 days prior to and continuing throughout the Ang II infusion period (FIG. 3). Blood pressure was monitored continuously using radiotelemetry.
Next, levels of albuminuria, which is a marker for kidney damage, were measured in Ang II-infused IL-1R Kos and wild type mice. It was observed that the levels of albuminuria were reduced by 37% in the IL1R KO mice vs. the wild type: 5899±929 vs. 9380±1423, n=9,10, p=0.052 (37.1% reduction); for 24 hour albuminuria, 3574 vs. 5082, p=0.0810 (30.4% reduction).

[4] = tested on: patients with rheumatic diseases; conditions: in vivo; cited from earlier work
[5] = tested on: wild-type mice in AngII-dependent hypertension model; assay: Ang II-dependent hypertension model, blood pressure by radiotelemetry; type: in vivo
Procedure: To study the role of IL-1 receptor (IL-1 R) activation in hypertension, uni-nephrectomized IL-1 R-deficient(IL-1R KO) and wild-type (WT) mice was chronically infused with angiotensin II (Ang II; 1000 ng/kg/min) for 4 weeks using an implanted osmotic mini-pump after measurement of baseline blood pressures. Chronic angiotensin II infusion in rodents is a widely accepted model of hypertension that leads to the same complications in rodents as those seen in humans including cardiac hypertrophy and kidney damage. Unilateral nephrectomy renders the remaining kidney more susceptible to injury in this hypertension model. In the experiments of the disclosure baseline mean arterial pressures (MAPs) were similar between groups.
In the present disclosure, Anakinra was administered at 50 mg/kg/day IP to wild-type mice in AngII-dependent hypertension model.
FIG. 3B illustrates the effect of treatment with 50 mg/kg/day IP once daily beginning 3 days prior to and continuing throughout the Ang II infusion period.
Uni-nephrectomized IL-1 R-deficient(IL-1R KO) and wild-type (WT) mice was chronically infused with (1000 ng/kg/min) for 4 weeks using an implanted osmotic mini-pump after measurement of baseline blood pressures. […] Blood pressure was monitored continuously using radiotelemetry.

## COC(=O)[C@@H](N)CCCNC(=N)N[N+](=O)[O-] [L-NAME, L-Nitroarginine Methyl Ester]
[1]; IL-1R KO mice
  blood pressure following L-NAME treatment: 185±8 mm Hg
[1]; WT mice
  blood pressure following L-NAME treatment: 186±5 mm Hg

## NS(=O)(=O)c1cc(C(=O)O)c(NCc2ccco2)cc1Cl [furosemide]
[2]; IL-1R KO mice
  urine sodium to creatinine ratio: 481±103%
[2]; WT mice
  urine sodium to creatinine ratio: 453±56%
[2]; WT mice, 3 hours after IP furosemide
  urine sodium to creatinine ratio (UNa/UCr): 453±60 mmollmmol

## Anakinra: recombinant, nonglycosylated form of the human interleukin-1 receptor antagonist (IL-1Ra) with an added N-terminal methionine, 153 amino acids
[3]; FIG. 9A
  decrease in cardiac hypertrophy: as profound as that seen in the IL-1R KO mice
[3]; FIG. 9B
  decrease in albuminuria: as profound as that seen in the IL-1R KO mice
[4]
  hypotension in clinical trials: lack of hypotension
[5]; 50 mg/kg/day IP once daily, during Ang II infusion (1000 ng/kg/min)
  ability to limit blood pressure elevation / protection from hypertension: as robust as genetic deletion of the receptor; also recorded: as profound as that seen in the IL-1R KO mice
[5]; 50 mg/kg/day IP, before Ang II infusion (Pre)
  effect on baseline blood pressure: no impact; also recorded: no effect

Reference: patent publication US20160022772A1, “Cytokine Receptors as Targets for Hypertension Therapy and Methods of Use” (Duke University, priority 2014, published 2016)
